These results are taken from US20250320213A1, “Nitrogen-Containing Heterocyclic Compounds” (Pfizer Inc., priority 2024, published 2025).

Read-outs that look alike come from different tables or passages of the source.

For one test, the target named is T1, STAT6 (Homo sapiens, UniProt P42226).
T1 construct: stably transfected HaCaT keratinocyte cell line, which expresses NanoLuc luciferase reporter gene under the transcriptional control of the STAT6 responsive promoter; endogenous in cells; host or cells: HaCaT keratinocyte reporter cell line (stably transfected with a NanoLuc reporter)
T1 sequence (P42226 1-847): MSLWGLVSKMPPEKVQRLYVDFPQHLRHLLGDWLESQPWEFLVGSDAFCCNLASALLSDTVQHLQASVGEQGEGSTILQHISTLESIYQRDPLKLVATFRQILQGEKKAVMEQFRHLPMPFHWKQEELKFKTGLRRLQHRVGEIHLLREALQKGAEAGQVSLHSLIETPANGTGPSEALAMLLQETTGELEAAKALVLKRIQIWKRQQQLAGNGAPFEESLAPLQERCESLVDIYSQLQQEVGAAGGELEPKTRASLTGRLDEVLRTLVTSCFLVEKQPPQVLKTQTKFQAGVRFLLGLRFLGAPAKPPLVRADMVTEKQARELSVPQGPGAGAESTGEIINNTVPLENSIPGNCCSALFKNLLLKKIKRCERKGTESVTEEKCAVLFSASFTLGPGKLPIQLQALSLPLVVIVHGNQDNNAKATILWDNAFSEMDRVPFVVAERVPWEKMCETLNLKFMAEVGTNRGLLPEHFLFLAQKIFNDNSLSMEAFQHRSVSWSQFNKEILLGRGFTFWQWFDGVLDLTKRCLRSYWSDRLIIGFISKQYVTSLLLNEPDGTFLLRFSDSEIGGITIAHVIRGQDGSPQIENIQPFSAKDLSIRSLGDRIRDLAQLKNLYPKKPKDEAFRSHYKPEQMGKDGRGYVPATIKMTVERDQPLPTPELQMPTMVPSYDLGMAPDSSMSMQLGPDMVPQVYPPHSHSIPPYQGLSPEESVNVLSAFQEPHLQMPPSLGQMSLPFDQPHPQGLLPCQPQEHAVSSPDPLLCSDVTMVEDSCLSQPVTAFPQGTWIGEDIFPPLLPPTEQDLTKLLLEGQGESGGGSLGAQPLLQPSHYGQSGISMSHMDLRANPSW
Put plainly: STAT6 Reporter Luciferase Assay (IL-13 stimulated HaCaT keratinocyte NanoLuc reporter cells). It counts as cell-based. The settings on record: read-out: Reporter EC50. A digest of the protocol:
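IL-13 (0.12 nM, 4 h) stimulated STAT6 reporter activity in HaCaT cells after a 2 h compound pre-incubation; NanoLuc signal was measured.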

Test [1] concerns CCL17 secretion in peripheral human whole blood. Put plainly: Human Whole Blood (HWB) CCL17 TR-FRET Assay (IL-13 stimulated CCL17 secretion). It counts as cell-based. A digest of the protocol:
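Compounds are titrated (11 points, 3-fold, duplicate) into fresh heparinized human whole blood and held 2 h at 37 °C before IL-13 challenge (10 ng/mL final). After 48 h at 37 °C, serum CCL17 is measured by TR-FRET sandwich assay and IC50 values are calculated.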

[2] abbreviates: IL-13 stimulated HaCaT STAT6 NanoLuc reporter cells.
Setting [3] is: human whole blood, IL-13 stimulated, 48 hours.
Where [4] appears, read: Homo sapiens, 48 h, human whole blood, 10 ng/mL IL13, 48 hours.
Setting [5] is: STAT6 NanoLuc luciferase reporter, IL-13 stimulated HaCaT keratinocyte cells.
Setting [6] is: Homo sapiens, 48 h, inhibition of CCL17 secretion in human whole blood, 10 ng/mL IL13, 48 hours.

A word on the EC50: it is the concentration needed to bring the measured effect to its halfway point. What is called IC50 is the midpoint of a concentration-inhibition curve. Higher therefore signals lower potency. `CCc1nc(C(=O)NCc2ccc(NC(=O)N(C)C)cc2)c2n1C(C)CN(c1ccc(C(=O)N(C)C)cn1)C2` (single isomer, unassigned) [Example 232, rel-(R or S)-7-(5-(dimethylcarbamoyl)pyridin-2-yl)-N-(4-(3,3-dimethylureido)benzyl)-3-ethyl-5-methyl-5,6,7,8-tetrahydroimidazo[1,5-a]pyrazine-1-carboxamide]: on STAT6 (setting [2]), the EC50 was determined as 0.002 µM. In test [1] (setting [3]), this compound gave an IC50 of 0.005 µM.

For `CC(C)n1nc(C(=O)NCc2ccc(C(=O)NCC3CCN(C)CC3)cc2)c2c1[C@@H](C)CN(c1ccc(C(=O)N(C)C)cc1)C2` [Example 617, (S)-5-(4-(dimethylcarbamoyl)phenyl)-1-isopropyl-7-methyl-N-(4-(((1-methylpiperidin-4-yl)methyl)carbamoyl)benzyl)-4,5,6,7-tetrahydro-1H-pyrazolo[4,3-c]pyridine-3-carboxamide], the EC50 on STAT6 (setting [2]) came out at 0.178 µM. Further, the IC50 in test [1] (setting [4]) is 0.502 µM.

`CN(C)C(=O)Nc1ccc(CNC(=O)c2nn(C34CC(C3)C4)c3c2CN(c2ccc(C(=O)N(C)C)cn2)CC3)cc1` [Example 104, 1-(bicyclo[1.1.1]pentan-1-yl)-5-(5-(dimethylcarbamoyl)pyridin-2-yl)-N-(4-(3,3-dimethylureido)benzyl)-4,5,6,7-tetrahydro-1H-pyrazolo[4,3-c]pyridine-3-carboxamide]: the EC50 at STAT6 (setting [5]) came to 0.007 µM. In test [1] (setting [6]), the 50% inhibitory concentration (IC50) came out at 0.107 µM.

As to `CNC(=O)c1ccc(N2CCc3c(c(C(=O)NCc4ccc(NC(=O)N(C)C)cc4)nn3C(C)C)C2)nc1` [Example 135, N-(4-(3,3-dimethylureido)benzyl)-1-isopropyl-5-(5-(methylcarbamoyl)pyridin-2-yl)-4,5,6,7-tetrahydro-1H-pyrazolo[4,3-c]pyridine-3-carboxamide], the EC50 on STAT6 (setting [5]) was 0.136 µM. The compound further came in with a half-inhibitory concentration (IC50) in test [1] (setting [6]) of 1.27 µM.

Regarding `CC(C)n1nc(C(=O)NCc2ccc(NC(=O)N(C)C)cc2)c2c1CCN(c1ccc(C3CCCO3)cn1)C2` (single isomer, unassigned) [Example 361, rel-(R or S)-N-(4-(3,3-dimethylureido)benzyl)-1-isopropyl-5-(5-(tetrahydrofuran-2-yl)pyridin-2-yl)-4,5,6,7-tetrahydro-1H-pyrazolo[4,3-c]pyridine-3-carboxamide], the EC50 at STAT6 (setting [2]) worked out at 0.158 µM. The half-maximal inhibitory concentration (IC50) in test [1] (Homo sapiens, 48 h, human whole blood, IL-13 stimulated) is > 4.08 µM.

As to `Cc1cccc(-c2ccc(CNC(=O)c3nn(C(C)C)c4c3CN(c3ccc(C(=O)N(C)C)cc3)C[C@@H]4C)cc2)n1` [Example 726, (S)-5-(4-(dimethylcarbamoyl)phenyl)-1-isopropyl-7-methyl-N-(4-(6-methylpyridin-2-yl)benzyl)-4,5,6,7-tetrahydro-1H-pyrazolo[4,3-c]pyridine-3-carboxamide], on STAT6 (setting [2]), the EC50 was 0.123 µM. The IC50 in test [1] (Homo sapiens, 48 h, human whole blood, IL-13 10 ng/mL) was determined as 5.68 µM.

For `CC(C)n1nc(C(=O)NCc2ccc(NC(=O)N3CCNCC3)nc2)c2c1[C@@H](C)CN(c1ccc(C(=O)N(C)C)cc1)C2` [Example 699, (S)-5-(4-(dimethylcarbamoyl)phenyl)-1-isopropyl-7-methyl-N-((6-(piperazine-1-carboxamido)pyridin-3-yl)methyl)-4,5,6,7-tetrahydro-1H-pyrazolo[4,3-c]pyridine-3-carboxamide], the concentration for a half-maximal effect (EC50) on STAT6 (setting [2]) turned out to be 0.004 µM. Moreover, the IC50 in test [1] (setting [4]) turned out to be 0.027 µM.

On to `CN(C)C(=O)Nc1ccc(CNC(=O)c2nn(C)c3c2[C@H]2CCC[C@@H](C3)N2c2ccc(C(=O)N(C)C)cn2)cc1` (single isomer, unassigned) [Example 275], for which the concentration giving a half-maximal response (EC50) at STAT6 (setting [2]) was determined as 0.007 µM. Further, half-maximal inhibition in test [1] (setting [3]) (IC50) was put at 0.03 µM.

Turning to `CN(C)C(=O)Nc1ccc(CNC(=O)c2nn(C)c3c2CN(c2ccc(C(=O)N(C)C)cn2)CC32CC2)cc1` [Example 106, 5′-(5-(dimethylcarbamoyl)pyridin-2-yl)-N-(4-(3,3-dimethylureido)benzyl)-1′-methyl-1′,4′,5′,6′-tetrahydrospiro[cyclopropane-1,7′-pyrazolo[4,3-c]pyridine]-3′-carboxamide], the half-maximal effective concentration (EC50) at STAT6 (setting [5]) was determined as 0.008 µM. In test [1] (setting [6]), the concentration for half-maximal inhibition (IC50) is 0.049 µM.

Regarding `CCn1nc(C(=O)NCc2ccc(NC(=O)N(C)C)cc2)c2c1C1(CC1)CN(c1ccc(C(=O)N(C)C)cn1)C2` [Example 555, 5′-(5-(dimethylcarbamoyl)pyridin-2-yl)-N-(4-(3,3-dimethylureido)benzyl)-1′-ethyl-1′,4′,5′,6′-tetrahydrospiro[cyclopropane-1,7′-pyrazolo[4,3-c]pyridine]-3′-carboxamide], the EC50 on STAT6 (setting [2]) was determined as 0.005 µM. In test [1] (setting [4]), this compound had an IC50 of 0.052 µM.

As to `CC(C)n1nc(C(=O)NCc2ccc(NC(=O)N3CC4CC(C3)O4)cc2)c2c1CCN(c1ccc(C(=O)N(C)C)cn1)C2` [Example 184, N-(4-((5-(5-(dimethylcarbamoyl)pyridin-2-yl)-1-isopropyl-4,5,6,7-tetrahydro-1H-pyrazolo[4,3-c]pyridine-3-carboxamido)methyl)phenyl)-6-oxa-3-azabicyclo[3.1.1]heptane-3-carboxamide], the EC50 at STAT6 (setting [2]) worked out at 0.027 µM. In test [1] (setting [3]), the half-maximal inhibitory concentration (IC50) amounted to 0.092 µM.

On to `CC(C)n1nc(C(=O)NCc2ccc(NC(=O)N3CCN(C)CC3)cc2)c2c1[C@@H](C)CN(c1ccc(C(=O)N3Cc4cccnc4C3)cn1)C2` [Example 611, (S)-5-(5-(6,7-dihydro-5H-pyrrolo[3,4-b]pyridine-6-carbonyl)pyridin-2-yl)-1-isopropyl-7-methyl-N-(4-(4-methylpiperazine-1-carboxamido)benzyl)-4,5,6,7-tetrahydro-1H-pyrazolo[4,3-c]pyridine-3-carboxamide], for which, at STAT6 (setting [2]), the concentration giving a half-maximal response (EC50) came to 0.0002 µM. This compound also had a 50% inhibitory concentration (IC50) in test [1] (setting [4]) of 0.005 µM.

As for `CC1COC(=O)N1c1ccc(N2CCc3c(c(C(=O)NCc4ccc(NC(=O)N(C)C)cc4)nn3C(C)C)C2)nc1` (centres unmarked) [Example 99, N-(4-(3,3-dimethylureido)benzyl)-1-isopropyl-5-(5-(4-methyl-2-oxooxazolidin-3-yl)pyridin-2-yl)-4,5,6,7-tetrahydro-1H-pyrazolo[4,3-c]pyridine-3-carboxamide], the EC50 on STAT6 (setting [5]) was determined as 0.017 µM. In test [1] (setting [6]), this compound yielded a half-maximal inhibitory concentration (IC50) of 0.453 µM.

For `C[C@@H]1Cc2c(c(C(=O)NCc3ccc(NC(=O)N(C)C)cc3)nn2C)CN1c1ccc(C(=O)N(C)C)cn1` [Example 50, (R)-5-(5-(dimethylcarbamoyl)pyridin-2-yl)-N-(4-(3,3-dimethylureido)benzyl)-1,6-dimethyl-4,5,6,7-tetrahydro-1H-pyrazolo[4,3-c]pyridine-3-carboxamide], on STAT6 (setting [5]), the EC50 worked out at 0.035 µM. Also, 0.151 µM corresponded to half-maximal inhibition in test [1] (setting [6]) (IC50).

For `CC1CN(c2ccc(C(=O)N(C)C)cn2)Cc2c(C(=O)NCc3ccc(NC(=O)N(C)C)cc3)nn(C)c21` (single isomer, unassigned) [Example 7, rel-(R or S)-5-(5-(Dimethylcarbamoyl)pyridin-2-yl)-N-(4-(3,3-dimethylureido)benzyl)-1,7-dimethyl-4,5,6,7-tetrahydro-1H-pyrazolo[4,3-c]pyridine-3-carboxamide], the EC50 on STAT6 (setting [5]) came out at 0.033 µM. Half-maximal inhibition in test [1] (inhibition of CCL17 secretion in human whole blood, 10 ng/mL IL13, 48 hours) (IC50) was put at 0.196 µM.

Consider `CNC(=O)c1ccc(CNC(=O)c2csc3c2CN(c2ccc(C(=O)N(C)C)cn2)CC3)cc1` [Example 48, 5-(5-(dimethylcarbamoyl)pyridin-2-yl)-N-(4-(methylcarbamoyl)benzyl)-4,5,6,7-tetrahydrothieno[3,2-c]pyridine-3-carboxamide], for which the EC50 at STAT6 (setting [5]) came to 0.952 µM. Half-maximal inhibition in test [1] (setting [6]) (IC50) was put at 3.96 µM.
